{
  "source": "patent US20100280082A1",
  "about": "“Metabotropic Glutamate Receptor Oxadiazole Ligands and Their Use as Potentiators” (AstraZeneca AB, priority 2007, published 2010)",
  "biological_target": "hERG ion channel (Homo sapiens, UniProt Q12809)",
  "sequence (Q12809 whole entry)": "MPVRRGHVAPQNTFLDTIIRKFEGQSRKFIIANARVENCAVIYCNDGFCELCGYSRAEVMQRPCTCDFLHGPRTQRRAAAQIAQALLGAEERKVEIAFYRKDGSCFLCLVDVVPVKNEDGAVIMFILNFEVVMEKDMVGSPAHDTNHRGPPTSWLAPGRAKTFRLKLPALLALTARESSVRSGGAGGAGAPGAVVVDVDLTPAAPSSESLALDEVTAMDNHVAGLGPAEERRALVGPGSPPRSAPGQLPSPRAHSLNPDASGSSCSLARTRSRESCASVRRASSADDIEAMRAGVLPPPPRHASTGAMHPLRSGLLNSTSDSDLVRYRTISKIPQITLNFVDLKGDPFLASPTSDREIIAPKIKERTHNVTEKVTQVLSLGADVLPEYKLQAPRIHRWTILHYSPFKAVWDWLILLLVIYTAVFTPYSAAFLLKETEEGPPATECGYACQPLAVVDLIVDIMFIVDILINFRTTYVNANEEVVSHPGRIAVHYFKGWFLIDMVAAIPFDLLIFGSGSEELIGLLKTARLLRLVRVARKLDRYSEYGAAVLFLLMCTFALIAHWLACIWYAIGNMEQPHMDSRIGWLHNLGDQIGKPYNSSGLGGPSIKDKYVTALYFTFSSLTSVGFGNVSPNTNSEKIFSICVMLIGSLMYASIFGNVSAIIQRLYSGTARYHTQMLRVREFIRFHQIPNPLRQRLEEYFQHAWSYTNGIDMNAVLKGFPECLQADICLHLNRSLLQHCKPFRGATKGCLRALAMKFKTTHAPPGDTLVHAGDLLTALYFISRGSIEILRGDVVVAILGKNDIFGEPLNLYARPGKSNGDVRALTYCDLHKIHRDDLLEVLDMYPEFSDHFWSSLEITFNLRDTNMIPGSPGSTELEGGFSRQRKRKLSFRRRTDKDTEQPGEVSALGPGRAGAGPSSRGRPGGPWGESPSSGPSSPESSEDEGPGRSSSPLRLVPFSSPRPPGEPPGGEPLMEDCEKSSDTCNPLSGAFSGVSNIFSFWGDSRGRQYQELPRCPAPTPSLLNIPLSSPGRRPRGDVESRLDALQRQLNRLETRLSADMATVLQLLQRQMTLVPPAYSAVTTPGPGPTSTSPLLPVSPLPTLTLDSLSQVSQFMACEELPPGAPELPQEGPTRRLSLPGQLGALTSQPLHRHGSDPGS",
  "assay": "hERG activity (process of Bridgland-Taylor et al.)",
  "type": "cell-based",
  "method": "hERG activity was assessed using the process described by Bridgland-Taylor, M. H., et al, J. Pharm. Tox. Methods 54 (2006) 189-199.",
  "data": [
    {"smiles": "Cc1cc(-c2noc(C(C)N3CCNCC3)n2)cc2c1C(=O)N(Cc1ccc(OC(F)(F)F)cc1)C2", "note": "(centres unmarked) [Example 12, 7-Methyl-5-[5-(1-piperazin-1-yl-ethyl)-[1,2,4]oxadiazol-3-yl]-2-(4-trifluoromethoxy-benzyl)-2,3-dihydro-isoindol-1-one]", "values": [
      {"measurement": "hERG", "result": 17, "unit": "µM"}
    ]},
    {"smiles": "Cc1cc(-c2noc(CN3C[C@@H]4C[C@H]3CN4)n2)cc2c1C(=O)N([C@@H](C)c1ccc(Cl)cc1)C2", "note": "[Example 7, 2-[(S)-1-(4-Chloro-phenyl)-ethyl]-5-{5-[(1S,4S)-1-(2,5-diaza-bicyclo[2.2.1]hept-2-yl)methyl]-[1,2,4]oxadiazol-3-yl}-7-methyl-2,3-dihydro-isoindol-1-one]", "values": [
      {"measurement": "hERG", "result": 12, "unit": "µM"}
    ]},
    {"smiles": "O=C1c2c(Cl)cc(-c3noc(CN4CCNCC4)n3)cc2CN1Cc1ccc(OC(F)(F)F)cc1", "note": "[Example 1, 7-Chloro-5-(5-piperazin-1-ylmethyl-[1,2,4]oxadiazol-3-yl)-2-(4-trifluoromethoxybenzyl)-2,3-dihydroisoindol-1-one]", "values": [
      {"measurement": "hERG", "result": 10, "unit": "µM"}
    ]},
    {"smiles": "CC1(C)CN(Cc2nc(-c3cc(Cl)c4c(c3)CN(Cc3ccc(OC(F)(F)F)cc3)C4=O)no2)CCN1", "note": "[Example 11, 7-chloro-5-[5-(3,3-dimethyl-piperazin-1-ylmethyl)-[1,2,4]oxadiazol-3-yl]-2-(4-trifluoromethoxy-benzyl)-2,3-dihydroisoindol-1-one]", "values": [
      {"measurement": "hERG", "result": 13, "unit": "µM"}
    ]},
    {"smiles": "Cc1cc(-c2noc(CN3C[C@@H]4C[C@H]3CN4)n2)cc2c1C(=O)N(Cc1ccc(OC(F)(F)F)cc1)C2", "note": "[Example 5, 5-[5-(2,5-diaza-bicyclo[2.2.1]hept-2-ylmethyl)-[1,2,4]oxadiazol-3-yl]-7-methyl-2-(4-trifluoromethoxybenzyl)-2,3-dihydroisoindol-1-one]", "values": [
      {"measurement": "hERG", "result": 17, "unit": "µM"}
    ]},
    {"smiles": "O=C1c2c(Cl)cc(-c3noc(CN4CCNCC4)n3)cc2CN1Cc1ccc(Cl)cc1", "note": "[Example 2, 7-chloro-2-(4-chlorobenzyl)-5-(5-piperazin-1-ylmethyl-[1,2,4]oxadiazol-3-yl)-2,3-dihydroisoindol-1-one]", "values": [
      {"measurement": "hERG", "result": 14, "unit": "µM"}
    ]},
    {"smiles": "Cc1cc(-c2noc(C(C)N3CCNCC3)n2)cc2c1C(=O)N(Cc1ccc(Cl)cc1)C2", "note": "(centres unmarked) [Example 13, 2-(4-Chloro-benzyl)-7-methyl-5-[5-(1-piperazin-1-yl-ethyl)-[1,2,4]oxadiazol-3-yl]-2,3-dihydro-isoindol-1-one]", "values": [
      {"measurement": "hERG", "result": 13, "unit": "µM"}
    ]},
    {"smiles": "Cc1cc(-c2noc(CN3CCNCC3)n2)cc2c1C(=O)N(Cc1ccc(Cl)cc1)C2", "note": "[Example 4, 2-(4-chlorobenzyl)-7-methyl-5-(5-piperazin-1-ylmethyl-[1,2,4]oxadiazol-3-yl)-2,3-dihydroisoindol-1-one]", "values": [
      {"measurement": "hERG", "result": 8.9, "unit": "µM"}
    ]},
    {"smiles": "Cc1cc(-c2noc(CN3CCNCC3)n2)cc2c1C(=O)N(Cc1ccc(OC(F)(F)F)cc1)C2", "note": "[Example 3, 7-methyl-5-(5-piperazin-1-ylmethyl-[1,2,4]oxadiazol-3-yl)-2-(4-trifluoromethoxy-benzyl)-2,3-dihydroisoindol-1-one]", "values": [
      {"measurement": "hERG", "result": 13, "unit": "µM"}
    ]},
    {"smiles": "Cc1cc(-c2noc(CN3CCNC[C@@H]3C)n2)cc2c1C(=O)N(Cc1ccc(Cl)cc1)C2", "note": "[Example 9, 2-(4-chloro-benzyl)-7-methyl-5-[5-(2-methyl-piperazin-1-ylmethyl)-[1,2,4]oxadiazol-3-yl]-2,3-dihydroisoindol-1-one]", "values": [
      {"measurement": "hERG", "result": 11, "unit": "µM"}
    ]},
    {"smiles": "Cc1cc(-c2noc(CN3CCNCC3)n2)cc2c1C(=O)N([C@@H](C)c1ccc(Cl)cc1)C2", "note": "[Example 6, 2-[(S)-1-(4-Chloro-phenyl)-ethyl]-7-methyl-5-(5-piperazin-1-ylmethyl-[1,2,4]oxadiazol-3-yl)-2,3-dihydro-isoindol-1-one]", "values": [
      {"measurement": "hERG", "result": 14, "unit": "µM"}
    ]},
    {"smiles": "Cc1cc(-c2noc(C(C)N3CCNCC3)n2)cc2c1C(=O)N([C@@H](C)c1ccc(Cl)cc1)C2", "note": "(stereo partly drawn) [Example 14, 2-[(S)-1-(4-Chloro-phenyl)-ethyl]-7-methyl-5-[5-(1-piperazin-1-yl-ethyl)-[1,2,4]oxadiazol-3-yl]-2,3-dihydro-isoindol-1-one]", "values": [
      {"measurement": "hERG", "result": 11, "unit": "µM"}
    ]},
    {"smiles": "Cc1cc(-c2noc(CN3CCNC[C@H]3C)n2)cc2c1C(=O)N(Cc1ccc(Cl)cc1)C2", "note": "[Example 8, 2-(4-chloro-benzyl)-7-methyl-5-[5-(2-methyl-piperazin-1-ylmethyl)-[1,2,4]oxadiazol-3-yl]-2,3-dihydroisoindol-1-one]", "values": [
      {"measurement": "hERG", "result": 11, "unit": "µM"}
    ]},
    {"smiles": "Cc1cc(-c2noc(CN3CCNC(C)C3)n2)cc2c1C(=O)N(Cc1ccc(Cl)cc1)C2", "note": "(centres unmarked) [Example 10, 2-(4-chloro-benzyl)-7-methyl-5-[5-(3-methyl-piperazin-1-ylmethyl)-[1,2,4]oxadiazol-3-yl]-2,3-dihydroisoindol-1-one]", "values": [
      {"measurement": "hERG", "result": 11, "unit": "µM"}
    ]}
  ]
}
